Laboratory results as given in patent US4123552A, “Compositions for preserving crops and animal feedstuffs” (Chevron Research Company, priority 1975, dated 1978).

Tests used:
[1] = Solubility of insecticides in methylene bispropionate; type: physicochemical; conditions: solvent methylene bispropionate
Method: Methylene bispropionate was tested as a solvent for various insecticides. […] O,S-dimethylN-acetyl phosphoramidothioate was soluble in methylene bispropionate to the extent of 5 percent by weight. Chlordane was soluble in methylene bispropionate to the extent of at least 75 percent by weight.

[2] = tested on: high moisture corn; assay: Preservation of high moisture corn in ventilated cans (time until temperature exceeds room temperature); conditions: corn 25 percent moisture, 70-72 F
Method: High moisture corn (25 percent moisture) was treated with various methylene and polyoxymethylene esters of propionic or acetic acid of various dosages. The esters were applied to the corn in a mixer for one minute at 32 RPM. Three replicate two gallon ventilated cans were filled with the treated corn. The cans were then held at a temperature of 70°-72° F. Temperature readings were taken semi-weekly by means of thermocouples in the center of each can. When the temperature exceeded constant room temperature for at least an 8-hour period the treatment was considered broken.

[3] = tested on: All Species; assay: Control of seed- and soil-borne pathogens during storage of corn seeds (Table IV), all species; type: cell-based, Rhizopus, Penicillium, Fusarium; conditions: relative to untreated check
Method: A variety of bis-esters was tested for the control of seed- and soil-borne pathogens during storage of corn seeds (Zea mays) by the following procedure.
(§1) A small amount of acetone was added to the bis-ester to make specific volume, plus a small portion of emulsifier making it into a slurry. This preparation was diluted with water to the desired concentration. Solution was then evenly distributed on the wall of a glass jar. High moisture feedcorn with natural infection was stored frozen after harvest until used for this test. The corn seeds were rolled in the jar until they were coated and the solution was completely absorbed on them.
(§2) Following the treatment, the corn seeds were plated on Potato Dextrose Agar plates. For comparison, untreated corn seeds were also plated. Propionic acid was also tested for comparison.
The percentage control of all species was based on the total sum average of mycelial growth in millimeters of all species in the treated seeds relative to the untreated check. The fast growing Rhizopus was evaluated 7 days after treatment, the other fungi after 14 days.

[4] = tested on: Rhizopus sp.; assay: Concentration for 90% control of pathogen on corn seeds (Table V), Rhizopus sp.; type: cell-based; conditions: 5 days after treatment
Method: as §1, §2
(§3) A variety of bis-esters was tested for the control of seed- and soil-borne pathogens during the storage of corn seeds (Zea mays) by the procedure of Example 11. For comparison, propionic acid was also tested.
(§4) Control of each pathogen was determined by mycelial growth in millimeters in the treated seeds relative to untreated seeds. Mycelial growth of Rhizopus species and Fusarium species was evaluated 5 days after treatment. Mycelial growth in Aspergillus niger was evaluated 14 days after treatment.
(§5) The bis-ester tested and the concentration of active ingredient in ounces per 100 lbs. of corn seeds for 90 percent control of each pathogen species are tabulated in Table V.

[5] = tested on: Fusarium sp.; assay: Concentration for 90% control of pathogen on corn seeds (Table V), Fusarium sp.; type: cell-based; conditions: 5 days after treatment
Method: as §1, §2, §3, §4, §5

[6] = tested on: Aspergillus niger; assay: Concentration for 90% control of pathogen on corn seeds (Table V), Aspergillus niger; type: cell-based; conditions: corn seeds; 14 days after treatment
Method: as §1, §2, §3, §4, §5

Q: Which “miscibility with methylene bispropionate (in words)” value [1] does the source give for `CCOC(=O)CC(SP(=S)(OC)OC)C(=O)OCC` (stereo not drawn) [Malathion, S-[1,2-bis(ethoxycarbonyl)ethyl]-O,O-dimethyl phosphorodithioate] here?
A: Its value is “miscible with methylene bispropionate in all proportions”.

Q: Which “Weeks Effective” value ([2]; 3 Oz/Bu) does the source give for `CC(=O)OCOC(C)=O` [Methylene Bisacetate] here?
A: Its value is 6 Weeks.

Q: And the “Weeks Effective” value ([2]; 6 Oz/Bu)?
A: The value was > 12 Weeks.

Q: With `CCC(=O)OC(OC(=O)CC)C(Cl)(Cl)Cl` [2,2,2-Trichloroethylidene Bispropionate] as the molecule, how does the “% Control All Species” value ([3]; 1.0 Oz./100 Lbs.) read?
A: Its value is 8%.

Q: And the “% Control All Species” value ([3]; 2.5 Oz./100 Lbs.)?
A: The value was 54%.

Q: What about the “% Control All Species” value ([3]; 6.4 Oz./100 Lbs.) of the same molecule?
A: The value was 74%.

Q: And the “% Control All Species” value ([3]; 18 Oz./100 Lbs.)?
A: Its value is 89%.

Q: Which “Conc. for 90% Control, Rhizopus sp.” value [4] does the source give for `CCC(=O)O` [Propionic acid, reference compound] here?
A: The value was 3.8 oz./100 lbs.

Q: And the “Conc. for 90% Control, Fusarium sp.” value [5]?
A: The value was 9.6 oz./100 lbs.

Q: What about the “% Control All Species” value ([3]; 1.0 Oz./100 Lbs.) of the same molecule?
A: Its value is 28%.

Q: And the “% Control All Species” value ([3]; 2.5 Oz./100 Lbs.)?
A: The value was 60%.

Q: And the “% Control All Species” value ([3]; 6.4 Oz./100 Lbs.)?
A: Its value is 99%.

Q: And the “% Control All Species” value ([3]; 16 Oz./100 Lbs.)?
A: Its value is 99%.

Q: And the “Conc. for 90% Control, Aspergillus niger” value [6]?
A: The value was 3.4 oz./100 lbs.

Q: What about the “Weeks Effective” value ([2]; 2 Oz/Bu) of the same molecule?
A: Its value is 6 Weeks.

Q: What about the “Weeks Effective” value ([2]; 3 Oz/Bu) of the same molecule?
A: Its value is 6 Weeks.

Q: And the “Weeks Effective” value ([2]; 4 Oz/Bu)?
A: The value was > 12 Weeks.

Q: And the “Weeks Effective” value ([2]; 6 Oz/Bu)?
A: The value was > 12 Weeks.

Q: Which “solubility in methylene bispropionate” value [1] does the source give for `COP(=O)(NC(C)=O)SC` (stereo not shown) [O,S-dimethylN-acetyl phosphoramidothioate] here?
A: Its value is 5 percent by weight.

Q: For `ClC1=C(Cl)C2(Cl)C3C(Cl)C(Cl)CC3C1(Cl)C2(Cl)Cl` (stereo not shown) [Chlordane], which “solubility in methylene bispropionate” value [1] is on record?
A: Its value is “at least 75 percent by weight”.

Q: Which “Conc. for 90% Control, Rhizopus sp.” value [4] does the source give for `CCCC(=O)OCOCOC(=O)CCC` [Oxybismethylene Bisbutyrate] here?
A: The value was 1.1 oz./100 lbs.

Q: What about the “Conc. for 90% Control, Fusarium sp.” value [5] of the same molecule?
A: Its value is 1.0 oz./100 lbs.

Q: And the “% Control All Species” value ([3]; 1.0 Oz./100 Lbs.)?
A: Its value is 100%.

Q: And the “% Control All Species” value ([3]; 2.5 Oz./100 Lbs.)?
A: Its value is 100%.

Q: What about the “% Control All Species” value ([3]; 6.4 Oz./100 Lbs.) of the same molecule?
A: The value was 100%.

Q: And the “% Control All Species” value ([3]; 16 Oz./100 Lbs.)?
A: The value was 100%.

Q: What about the “Conc. for 90% Control, Aspergillus niger” value [6] of the same molecule?
A: Its value is 0.57 oz./100 lbs.

Q: For `CC(=O)OC(C)OC(C)=O` [Ethylidene Bisacetate], which “% Control All Species” value ([3]; 1.0 Oz./100 Lbs.) is on record?
A: The value was 60%.

Q: And the “% Control All Species” value ([3]; 2.5 Oz./100 Lbs.)?
A: The value was 87%.

Q: What about the “% Control All Species” value ([3]; 6.4 Oz./100 Lbs.) of the same molecule?
A: The value was 93%.

Q: What about the “% Control All Species” value ([3]; 16 Oz./100 Lbs.) of the same molecule?
A: The value was 100%.
